Key:
[1] = system: plaque-forming splenic cells (PFC); experiment: Primary antibody response against thymus-dependent antigen (PFC, Jerne plaque assay); assay type: in vivo, Mice B6 D2 F1; settings: 25 gamma i.p. 6 days before immunisation
From the text: (§1) The following experimental tests were used: • 1. Primary antibody response against thymus-dependent antigen, evaluated as the number of plaque-forming splenic cells (PFC) Mice B6 D2 F1, antigen SRBC (red sheep corpuscles) Jerne N.K and Nordin A.A., Plaque formation in ager by single antibody-producing cells Science, 140, 405, 1963. Table A • 2. Delayed hypersensitivity against cell antigen (DTH) Mice B6 D2 F1, antigen SRBC (red sheep corpuscles) Lagrange P.H., Mackaness G.B and Miller T.E., potentiation of T-cell-mediated immunity by selective suppression of antibody formation with cyclophosphamide. J. Exp. Med., 139, 1529, 1974. Table B • 3. Macrophage cytotoxic activity against target tumour induced by Corynebacterium Parvum Mice C57 BL/6; tumour L1210 pretagged with ⁵¹Cr; attack:target ratio 80:1; tumouricide activity evaluated as release of tagging compound and expressed as % of specific cytotoxicity. Herscowitr H.B. et al., Eds., Manual of macrophage methodology, M. Dekker 1981. Table C • 4. Splenic NK (natural cytotoxic cell) activity potentiated with polynucleotide (Poly I:C) Mice C57 BL/6; tumour YAC-1; evaluation as in test 3. Herbeman R.B. Ed., "Natural cell-mediated immunity against tumors". Academic Press, 1980. Table D
The treatment was carried out during the inductive stage of the response.

[2] = system: antigen SRBC (red sheep corpuscles); experiment: Delayed hypersensitivity against cell antigen (DTH); assay type: in vivo, Mice B6 D2 F1; settings: 1 gamma i.p. on day of immunisation
From the text: as §1, with “Table D […]” for “Table D”

Tuftsin
% increase in PFC/spleen vs. control [1]: 65%

Muramyl dipeptide
DTH response (Table B, continuation; column head not given) [2]: 50
